Key:
S. aureus [1] = experiment: Anti-biofilm activity on coated titanium disks, CFU count (Example 3); assay type: cell-based, Staphylococcus aureus; conditions: 48 hours, 5 mg/cm^2 coating
Method: Coated and uncoated titanium disks were prepared as described above and utilized as the substrate for the formation of biofilms. Subsequently, an overnight bacteria culture was resuspended in Brain Heart Infusion Broth (BHI; Biomérieux) at a density of 1.5×10^8 CFU/ml for each strain, and 200 microliters of microbial suspension were inoculated in sterile polystyrene plates with 6 wells containing coated and uncoated disks and 4.8 ml of BHI. The plates were incubated at 37° C. in an aerobic atmosphere for 24 and 48 hours. The test was performed in triplicate for each strain.
At the end of the biofilm incubation time, the disks were treated as described above and the detached cells of the biofilm were inoculated on Tryptic Soy Agar and incubated at 37° C. in an aerobic atmosphere for 24 hours for the CFU count.

S. aureus [2] = experiment: MIC and MBC, broth microdilution (Example 3); assay type: cell-based, Staphylococcus aureus
Excerpt: (§1) This study used clinically relevant strains isolated from patients with prosthetic joint infections at the Microbiology Laboratory of the IRCCS Galeazzi Orthopaedic institute (Italy). In particular, the following were selected: strains of methicillin-resistant Staphylococcus epidermidis, of methicillin-resistant Staphylococcus aureus and of Pseudomonas aeruginosa. These strains were identified beforehand by means of biochemical assays (VITEK® 2 Compact, bioMérieux, Marcy l'Etoile, France) and stored at −80° C. prior to the analysis. Before beginning the study, all strains were screened to assess their ability to produce biofilms, according to the spectrophotometric assay described by Christensen et al. (J Clin Microbiol 1985; 22: 996-1006).
(§2) The bacteriostatic and bactericidal activity of vitamin E acetate and vitamin E phosphate against the above-mentioned bacterial strains was assessed by measuring the minimum inhibitory concentration (MIC) and the minimum bactericidal concentration (MBC). MIC, defined as the lowest concentration capable of inhibiting bacterial growth, was determined using the broth microdilution method according to EUCAST guidelines (http://www.eucast.org/clinical_breakpoints/).
(§3) In short, a suspension in Brain Heart Infusion Broth (BHI; Biomérieux, Marci l'Etoile, France) was prepared for each bacterial strain, with an optical density of 0.5 McFarland (1.5×10^8 CFU/ml). The P. acnes broth was supplemented with 5% defibrinated sheep blood (Liofilchem, Roseto degli Abruzzi, Italy). After a concentration of 10^5 UFC/ml was obtained using appropriate dilutions, each suspension was inoculated in a 96-well microtitre plate containing a two-fold serial dilution of vitamin E acetate (VitE-Ac) and vitamin E phosphate. The controls were performed by inoculating bacterial suspensions in BHI alone. […] After incubation at adequate conditions, MBC was read as the lowest concentration capable of killing 99.9% of the initial inoculum.

S. epidermidis [3] = experiment: Anti-adhesion activity on coated titanium disks, CFU count (Example 3); assay type: cell-based, Staphylococcus epidermidis
Method: (§4) Sterile disks of sandblasted titanium with a diameter of 25 mm and a thickness of 5 mm (Adler Ortho, Cormano, Italy) were used as the substrate for the formation of biofilms. The disks were coated with sub-inhibitory concentrations of vitamin E acetate (5 mg/cm^2) or vitamin E phosphate (5 mg/cm^2). The concentrations were selected based on the MIC results. Uncoated disks were used as negative controls. The anti-adhesion activity of vitamin E was assessed against a representative strain for each species. An overnight bacteria culture was resuspended in Brain Heart Infusion Broth (BHI; Biomérieux) at a density of 1.0×10^7 CFU/ml for each strain, and 400 microliters of microbial suspension were inoculated on coated and uncoated disks. The test was performed in triplicate for each strain. After 30, 60 and 120 minutes of incubation, the disks were washed twice with a sterile saline solution to eliminate non-adherent bacteria. The disks were then immersed in 5 ml of a 0.1 w/v % dithiothreitol solution (DTT, Sigma-Aldrich, Milan, Italy) and mechanically stirred for 15 minutes at room temperature. Suitable dilutions of the fluids obtained were inoculated on Tryptic Soy Agar (TSA, Merck) and incubated at 37° C. in an aerobic atmosphere for 24 hours for the CFU count.

P. aeruginosa [4] = experiment: MIC and MBC, broth microdilution (Example 3); assay type: cell-based, Pseudomonas aeruginosa
Excerpt: as §1, §2, §3

S. aureus [5] = experiment: Anti-adhesion activity on coated titanium disks, CFU count (Example 3); assay type: cell-based, Staphylococcus aureus
Method: as §4

P. aeruginosa [6] = experiment: as above; assay type: cell-based, Pseudomonas aeruginosa
Method: as §4

S. epidermidis [7] = experiment: MIC and MBC, broth microdilution (Example 3); assay type: cell-based, Staphylococcus epidermidis
Excerpt: as §1, §2, §3

P. acnes = experiment: MIC and MBC, broth microdilution (Example 3); assay type: cell-based
Method: as §3, with “MIC, defined as the lowest concentration capable of inhibiting bacterial growth, was determined using the broth microdilution method according to EUCAST guidelines (http://www.eucast.org/clinical_breakpoints/). In short,” for “In short,”, “Infusion Broth ([…], France) was” for “Infusion Broth (BHI; Biomérieux, Marci l'Etoile, France) was”, “sheep blood ([…] Abruzzi, Italy).” for “sheep blood (Liofilchem, Roseto degli Abruzzi, Italy).”

rats or mice = conditions: rat or mouse; cited from earlier work
[8] = test system: S. aureus, S. epidermidis, E. coli, P. aeruginosa and C. albicans (all the strains tested); experiment: Antimicrobial activity, MIC by broth microdilution (Example 1); assay type: cell-based; conditions: mean over all strains tested; VitE diluted in hyaluronic acid; read after 24 hours at 37° C.
Method: The microbial strains utilized in this study were isolated from clinical samples collected from bone and soft tissue infections. In particular, strains of S. aureus, S. epidermidis, E. coli, P. aeruginosa and C. albicans were utilized. They were identified beforehand by means of biochemical assays and examined to assess their ability to produce biofilms, according to the spectrometric assay described by Christensen et al. (1985). The microorganisms were stored at −80° C. prior to the analysis. Prior to use, the strains were thawed and cultivated in an appropriate culture medium at 37° C. for 24 h. Antimicrobial activity was assessed by determining the minimum inhibitory concentration (MIC). MIC, defined as the lowest concentration of an antimicrobial substance that inhibits the visible growth of a microorganism, was determined using the broth microdilution method, in accordance with the guidelines of the European Committee on Antimicrobial Susceptibility Testing (EUCAST). […] VitE was diluted in hyaluronic acid (HA) at various concentrations, for which the growth checks were performed by inoculating the microbial suspension in BHI+HA. […] The assay was conducted in duplicate and repeated twice.

[9] = 5 mg/cm^2 coating, 30, 60 and 120 minutes
[10] = 5 mg/cm^2 coating, range over 30, 60 and 120 minutes

Molecule: Cc1c(C)c2c(c(C)c1OP(=O)([O-])[O-])CC[C@@](C)(CCC[C@H](C)CCC[C@H](C)CCCC(C)C)O2.[Na+].[Na+] [Vitamin E phosphate, α-tocopherol phosphate disodium salt]
- biofilm reduction with respect to the controls (in words) (S. aureus [1]): significantly inhibited
- bactericidal at the concentrations tested (in words) (S. aureus [2]; S. aureus): bactericidal
- MIC range (S. aureus [2]; S. aureus strains, 24 hours): 25 to 100 mg/mL
- MBC range (S. aureus [2]; S. aureus strains, kills 99.9% of the initial inoculum): 25 to 200 mg/mL
- decrease in adhesion (in words) (S. epidermidis [3]; [9]): significant decrease
- inhibition of adhesion with respect to the control (S. epidermidis [3]; [10]): 84-95%
- bactericidal at the concentrations tested (in words) (P. aeruginosa [4]; P. aeruginosa): not against P. aeruginosa
- MIC range (P. aeruginosa [4]; P. aeruginosa strains, 24 hours): 100 to 200 mg/mL
- MBC range (P. aeruginosa [4]; P. aeruginosa strains, kills 99.9% of the initial inoculum): >200 mg/mL
- decrease in adhesion (in words) (S. aureus [5]; [9]): significant decrease
- inhibition of adhesion with respect to the control (S. aureus [5]; [10]): 60-78%
- decrease in adhesion (in words) (P. aeruginosa [6]; [9]): significant decrease for all the strains tested, with the exception of the last time period tested for P. aeruginosa
- inhibition of adhesion with respect to the control (P. aeruginosa [6]; [10]): 7-65%
- bactericidal at the concentrations tested (in words) (S. epidermidis [7]; S. epidermidis): bactericidal
- MIC range (S. epidermidis [7]; S. epidermidis strains, 24 hours): 3.13 to 100 mg/mL
- MBC range (S. epidermidis [7]; S. epidermidis strains, kills 99.9% of the initial inoculum): 25 to 100 mg/mL
- bactericidal at the concentrations tested (in words) (P. acnes): bactericidal
- MIC range (P. acnes; 48 hours, broth with 5% defibrinated sheep blood): 1.56 to 6.25 mg/mL
- MBC range (P. acnes; kills 99.9% of the initial inoculum): 31.25 to 50 mg/mL

Molecule: vitamin E
- LD50 (rats or mice): 4000 mg of vitamin E/kg
- mean MIC value [8]: 2.5%

— US20190015385A1, “VITAMIN E PHOSPHATE OR ACETATE FOR USE IN THE TREATMENT AND PREVENTION OF BIOFILM INFECTIONS” (priority 2016, published 2019)
